BindingDB's records for doi:10.1016/j.bmc.2007.10.061 (Osi Pharmaceuticals, 2008)

Columns and labels:
[1] = biological target: Mitogen-activated protein kinase 1 (ERK2) (Homo sapiens) (UniProt P28482); test: Inhibition of MAPK2
[2] = biological target: 3-phosphoinositide-dependent protein kinase 1 (PDPK1) (Homo sapiens) (UniProt O15530); test: Inhibition of PDK1

Sequence of Mitogen-activated protein kinase 1 (ERK2) (Homo sapiens) (P28482 whole entry, looked up): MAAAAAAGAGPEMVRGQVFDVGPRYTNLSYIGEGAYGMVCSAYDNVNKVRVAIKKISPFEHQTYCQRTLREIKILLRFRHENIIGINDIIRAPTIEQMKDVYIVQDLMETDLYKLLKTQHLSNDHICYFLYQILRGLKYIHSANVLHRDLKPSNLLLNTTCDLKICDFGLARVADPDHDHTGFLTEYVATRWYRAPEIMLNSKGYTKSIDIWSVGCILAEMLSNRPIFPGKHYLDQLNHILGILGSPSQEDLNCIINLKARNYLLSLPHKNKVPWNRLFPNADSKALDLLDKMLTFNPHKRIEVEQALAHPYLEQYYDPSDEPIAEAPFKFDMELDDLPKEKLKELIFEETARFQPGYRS

IC50 [1]: > 10 µM | IC50 [2]: > 30 µM
SMILES: Nc1nccn2c1c(-c1ccc3ccc(-c4ccccc4)nc3c1)nc2[C@H]1C[C@@H](CN2CCC2)C1 [cis-3-(3-(azetidin-1-ylmethyl)cyclobutyl)-1-(2-phenylquinolin-7-yl)imidazo[1,5-a]pyrazin-8-amine]
